Measured values reported in US20140256663A1, “Amphotericin Analogous Compounds and Pharmaceutical Compositions Containing Them” (CENTRO DE INVESTIGACION Y DE ESTUDIOS AVANZADOS DEL …, priority 2010, published 2014).
In brackets after ≈: the same amount, converted by molar mass. Entries after “also recorded” stand apart in the source; their conditions may differ. Like-named read-outs stand apart in the source and are kept apart here.

Columns and labels:
[1] = system: human renal cells 293Q (ATCC CLR-1573); experiment: MTT cytotoxicity on human renal cells 293Q
Description: For cytotoxicity studies human kidney cells (ATCC No. CRL-1573) were used. The cells were cultured with Minimum Essential Medium (MEM) (GIBCO BRL), supplemented with 10% fetal bovine serum (FBS) (GIBCO BRL), 2 mM 1-glutamine (GIBCO BRL), 1.5 gL Na2HCO3 (Sigma Chemical Co), 0.1 mM nonessential amino acids (Sigma Chemical Co), and 1 mM sodium pyruvate (In vitro, S.A.). The technique of bromide of 3(4,5-dimethylthiazol-2-yl)-2,5-diphenyl tetrazolium (MTT) (Sigma Chemical Co) was applied; a technique which is based on the conversion of dye to an insoluble precipitate called formazan. This test is used as an indicator of mitochondrial function in living cells that measures the metabolic capacity in cells and serves as an indicator of cytotoxicity. […] (Mosman […], Immunol Methods, 65: 55-63). The cytoxicity test consisted of planting 10,000 cells per well in 96-well plates (Corning Incorporated Costar) in MEM and incubate them (Nuaire us autoflow CO2 water-jacketed incubator) during 24 h at 37° C. and 5% CO2. […] After incubation, cells were treated and incubated anew for 24 h. After this time the medium was aspirated carefully and replaced with 200 μL of fresh medium, and 50 μL of MTT was added for a total volume of 250 μl. They were then incubated for 4 hours in the above conditions. After that time the medium with MTT was carefully removed and 200 μL of DMSO and 25 μL of Sorensen buffer (0.1 M glycine+0.1 M NaCl at pH 10.5) were added to each well. The plate was then mixed until the formazan crystals dissolved, and it was finally read in a plate reader (Microplate Limaning System Ultramark, Biorad) at a wavelength of 550 nm.
For the tests, we used human renal ephythelial cells (293Q) (ATCC Catalog No. CRL-1573). The cells were cultured with Minimum Essential Medium (MEM) (GIBCO BRL) supplemented with 10% fetal bovine serum (FBS) (GIBCO BRL), 2 mM L-glutamine (GIBCO BRL), 1.5 g/L Na2HCO3 (Sigma Chemical Co), 0.1 mM nonessential amino acids (Sigma Chemical Co), and 1 mM sodium pyruvate (In vitro, S.A.). For cytoxicity tests, we applied the technique of bromide 3(4,5-dimethylthiazol-2-yl)-2,5-diphenyl tetrazolium (MTT) (Sigma Chemical Co), which is based on the conversion of the dye to an insoluble precipitate called formazan. This test is used as an indicator of mitochondrial function in living cells which measures the metabolic capacity in cells and serves as an indicator of cytotoxicity. (Wang, H. Z., Chang, C. H., Lin, C. P., Tsai, M. C). Using MTT viability assay to test the cytotoxicity of antibiotics and steroid to cultured porcine corneal endothelial cells. J. Ocul. Pharmacol. Ther. 1996; 12: 35-43). For the essay 10,000 cells were seeded per well in 96-well plates (Corning Incorporated Costar) in the medium already indicated and incubated for 24 h at 37° C. and 5% CO2. […] After incubation, cells were treated and incubated again for 24 h. The medium was carefully aspirated and replaced with 200 μl fresh medium, adding 50 μl MTT solution for a total volume of 250 μl. They were then incubated for 4 hours in the above conditions. The medium was carefully removed with MTT and 200 μl DMSO and 25 μl Sorense buffer (0.1 M glycine+0.1 M NaCl at pH 10.5) was added to each well. Then the plate was mixed until the formazan crystals dissolved; it was finally read in a reader plate (Microplate Limaning System Ultramark, Biorad) at a wavelength of 550 nm.

human erythrocytes = experiment: Hemolytic assay on human erythrocytes; assay type: cell-based; settings: 1 hour
Description: The hemotoxicity of the polyene macrolide derivative of the present invention was determined by measuring the toxicity to human erythrocytes (values HE50) using a method established by Cybulska, et al. (Cybulska, B., Borowski, E. and Gary-Bobo, M. Relationship between ionophoric and hemolytic activities of perimycin A and vacidin A, two polyene macrolide antifungal antibiotics. Biochem Pharmacol. 1989; 38(11): 1755-1762). For determining the haematoxicity 2 mL blood were obtained and placed in a tube with EDTA. The number of erythrocytes was counted in a Neubauer chamber, and 1×10^7 cells/mL were placed in test tubes. The erythrocytes were resuspended in 450 μL of KCl 150 mM+Tris 3 mM buffer. The erythrocytes were treated with concentrations of 0.01, 0.1, 1, 10 y 100 μM and incubated in a water bath for 1 hour. They were then centrifuged at 1500 rpm for 15 seconds; 150 μL were taken from the supernatant and placed in 96-well plates; the optical density of each group was measured using a plate reader at a wavelength of 550 nm. We included one tube with the drug solvent (DMSO 1%) as internal control. We also included one tube only with erythrocytes and 500 μl of buffer KCl 150 mM+Tris 3 mM, which we consider as a negative control group and a tube with 500 μl of red cells and 35 mM NaCl (positive control).

[2] = system: Candida albicans ATCC 752; experiment: Antifungal activity in vitro by flow cytometry, Candida albicans ATCC 752; assay type: cell-based; settings: read-out: CF50 Candida albicans ATCC 752
Description: (§1) The antifungal activity of the polyene macrolide derivate of the present invention was determined by flow cytometry method earlier described (Pinto et al., J. Medical Microbiology, 2009; 58, 1454-1462; Pina-Vaz and Rodriguez, Methods Mol. Biol. 2010; 638:281-289). For the test two strains of Candida albicans (ATCC 10231 and 752) and Candida kruzei were used. A cellular suspension of 1×10^6 UFC/mL was used, which has sown in 96-well plates. […] As controls were used: untreated yeasts (control of living cells), yeasts exposed to UV radiation (arrest, inhibition of proliferation), and yeasts exposed at temperature of 100° C. (dead yeasts). Cells were collected by centrifugation at 10,000×g for 10 min, they were washed once in phosphate buffer. […] of propidium iodide 0.1 mg/mL were added to the cell suspension. It was incubated during 30 minutes at room temperature and protected from light. Finally, the samples were analyzed by flow cytometry (Becton-Dickinson Facsc Calibur, laser argon 480 nm). The intrinsic parameters and fluorescence in the FL2 channel (yellow/orange fluorescence) for FUN and channel FL3 (red fluorescence, filter 630 nm) for propidium iodide were acquired and registered on a logarithmic scale for a minimum of 7500 events per sample. For data analysis, the quadrants were adjusted in a plot of data lines of fluorescence intensity of samples. […] These quadrants were used to quantify the percentile of cells showing altered fluorescence compared to drug-free controls.

[3] = system: Candida albicans ATCC 10231; experiment: Antifungal activity in vitro by flow cytometry, Candida albicans ATCC 10231; assay type: cell-based
Candida kruzei = experiment: Antifungal activity in vitro by flow cytometry, Candida kruzei; assay type: cell-based; settings: read-out: CF50 Candida kruzei
Description: as §1

Compound	DT50 CitE50 ([1]; human, 24 h) [µM]	MIC50 Kidney cells (293Q) ([1]; human, 24 h) [µM]	HE50 (Hemolysis 50) (human erythrocytes) [µM]	IC50 ([2]; ATCC752, 24 h at 37° C.) [µM]	MIC50 ([3]; ATCC10231, Compounds of the present invention) [µg/mL]	IC50 (Candida kruzei; 24 h at 37° C.) [µM]	collateral cytotoxicity on human renal cells 293Q compared to AmB ([1]; FIG. 2, FIG. 8, listed as amide 7)	DT50 CitE50 ([1]; human renal cells 293Q, 24 h) [µM]	IC50 ([2]; ATCC752, 24 h) [µM]	IC50 ([3]; ATCC10231, 24 h, read-out: CF50 Candida albicans ATCC 10231) [nM]	IC50 (Candida kruzei; 24 h) [µM]
C[C@@H]1[C@H](O)[C@@H](C)/C=C/C=C/C=C/C=C/C=C/C=C/C=C/[C@H](O[C@@H]2O[C@H](C)[C@@H](O)[C@H](N)[C@@H]2O)C[C@@H]2O[C@](O)(C[C@@H](O)C[C@@H](O)[C@H](O)CC[C@@H](O)C[C@@H](O)CC(=O)O[C@H]1C)C[C@H](O)[C@H]2C(=O)O [AmB, Amphotericin B]	9.7	9.7 (≈ 8.96 µg/mL)	7	1	0.2 (≈ 0.216 µM)	> 10					
COC(=O)[C@@H](Cc1c[nH]c2ccccc12)NC(=O)[C@@H]1C(O)C[C@@]2(O)C[C@@H](O)C[C@@H](O)[C@H](O)CC[C@@H](O)C[C@@H](O)CC(=O)OC(C)C(C)[C@H](O)C(C)/C=C/C=C/C=C/C=C/C=C/C=C/C=C/[C@H](OC3OC(C)C(O)C(N)C3O)CC1O2 (stereo partly drawn) [A-7, N-(D)-tryptophanamide of AmB]			80				the lowest cytoxicity; also recorded: low cytoxicity	220	8.2	1500	> 10
